Tests used:
zfT1R2b/zfT1R3 [1] = molecular target: T1, zfT1R2b/zfT1R3 (Danio rerio, UniProt A0A8M1NDZ5+Q2MHK9); experiment: Effect of anions, cations and osmotic pressure on cellular responses, cells in 10 mM Cl- buffer, zfT1R2b/zfT1R3; assay type: cell-based, zebrafish; settings: coapplied with 2 mM L-Ala, increasing salt concentration
T1 sequence (A0A8M1NDZ5 18-823): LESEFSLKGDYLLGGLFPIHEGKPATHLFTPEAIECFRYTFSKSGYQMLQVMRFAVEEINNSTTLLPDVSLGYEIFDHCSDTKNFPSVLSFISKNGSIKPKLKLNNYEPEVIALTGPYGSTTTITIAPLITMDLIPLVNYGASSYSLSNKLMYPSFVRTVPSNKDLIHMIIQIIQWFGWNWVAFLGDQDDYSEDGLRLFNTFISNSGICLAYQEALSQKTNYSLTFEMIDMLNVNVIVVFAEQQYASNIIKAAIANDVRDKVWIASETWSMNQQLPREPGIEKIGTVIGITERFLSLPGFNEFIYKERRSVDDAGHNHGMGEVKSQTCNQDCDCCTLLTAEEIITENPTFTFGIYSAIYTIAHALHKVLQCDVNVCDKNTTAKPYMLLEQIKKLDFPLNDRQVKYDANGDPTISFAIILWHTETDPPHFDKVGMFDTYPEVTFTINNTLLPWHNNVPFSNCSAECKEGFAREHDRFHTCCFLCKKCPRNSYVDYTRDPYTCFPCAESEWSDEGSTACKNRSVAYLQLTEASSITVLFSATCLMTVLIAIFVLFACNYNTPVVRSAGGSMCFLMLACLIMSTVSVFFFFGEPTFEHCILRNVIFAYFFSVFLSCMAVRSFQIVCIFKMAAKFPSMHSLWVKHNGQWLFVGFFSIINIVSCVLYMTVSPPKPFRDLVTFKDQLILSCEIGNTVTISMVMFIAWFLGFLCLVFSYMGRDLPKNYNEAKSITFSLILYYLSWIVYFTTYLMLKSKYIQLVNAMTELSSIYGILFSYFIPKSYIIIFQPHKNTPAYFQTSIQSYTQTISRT
T1 sequence (Q2MHK9 25-850): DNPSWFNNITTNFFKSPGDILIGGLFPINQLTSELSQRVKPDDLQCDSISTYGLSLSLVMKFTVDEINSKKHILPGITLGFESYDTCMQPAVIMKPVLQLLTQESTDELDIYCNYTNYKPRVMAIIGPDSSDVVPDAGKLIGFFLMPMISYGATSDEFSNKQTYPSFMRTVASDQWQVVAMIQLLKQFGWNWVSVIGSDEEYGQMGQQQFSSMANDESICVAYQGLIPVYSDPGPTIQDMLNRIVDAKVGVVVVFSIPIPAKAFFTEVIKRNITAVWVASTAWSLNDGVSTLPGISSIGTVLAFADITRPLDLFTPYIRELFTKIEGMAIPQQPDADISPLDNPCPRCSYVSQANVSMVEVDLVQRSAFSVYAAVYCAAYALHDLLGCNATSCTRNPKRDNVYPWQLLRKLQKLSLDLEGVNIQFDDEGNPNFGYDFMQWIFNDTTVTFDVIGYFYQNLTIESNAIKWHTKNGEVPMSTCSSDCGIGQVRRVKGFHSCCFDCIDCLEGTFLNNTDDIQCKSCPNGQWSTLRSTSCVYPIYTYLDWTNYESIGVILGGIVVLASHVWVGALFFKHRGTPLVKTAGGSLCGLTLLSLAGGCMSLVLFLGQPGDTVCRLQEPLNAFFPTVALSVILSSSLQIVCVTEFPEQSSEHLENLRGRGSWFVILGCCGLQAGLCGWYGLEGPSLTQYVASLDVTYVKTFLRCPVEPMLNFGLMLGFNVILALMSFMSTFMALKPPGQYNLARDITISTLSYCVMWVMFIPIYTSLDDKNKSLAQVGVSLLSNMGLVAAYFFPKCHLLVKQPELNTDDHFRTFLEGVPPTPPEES
Description: Cells were seeded in 96-well plates coated with ε-poly-L-lysine at approximately 70,000 cells per well. […] Fluorescence changes were monitored at 2 s intervals, as described above. […] Three independent experiments were conducted for each receptor, and representative results are shown as the mean ± SEM (n = 3 replicates). Statistical tests were conducted using KyPlot version 6.0 (KyensLab Inc., Tokyo, Japan). Statistical significance was set at p < 0.05.

mfT1R2b/mfT1R3 = experiment: Ca2+ mobilization dose-response assay, stable cells expressing mfT1R2b/mfT1R3 with G16gust44; settings: 10 mM vs 141.4 mM Cl- buffer
Description: (§1) The buffers with lower Cl^− were prepared by progressively replacing NaCl, KCl, CaCl2 and MgCl2 in the buffer with gluconate equivalents[20]. The pH was adjusted to 7.4 with NaOH. Ligands were diluted with the assay buffers at the desired concentrations.
Measurements of the responses of the cells by cell-based assay based on the intracellular Ca^2+ mobilization were carried out as described previously with some modifications[20],[34],[46],[47]. […] The cells were seeded in 96-well plates (clear-bottomed CellBIND surface plate, Corning, Glendale, AZ, USA) coated with ε-poly-L-lysine (Cosmo Bio, Tokyo, Japan) at approximately 70,000 cells per well. After 20 h, the medium was removed and replaced with high Cl^− buffer. […] Fluorescence changes (i.e., excitation at 485 nm and emission at 525 nm with a cutoff at 515 nm) were monitored at 2 s intervals. […] The response of each well was determined as ∆RFU (delta relative fluorescent units), which was calculated as (maximum fluorescent value)—(minimum fluorescent value). […] Dose‒response fitting curves were calculated by Prism 9 (GraphPad Software, San Diego, CA) using nonlinear regression (log(agonist) vs. response—variable slope), based on the integrated data from the several independent experiments.

zfT1R2b/zfT1R3 [2] = molecular target: T1, zfT1R2b/zfT1R3; experiment: cell-based
Description: as §1
Measurements of the responses of the cells by cell-based assay based on the intracellular Ca^2+ mobilization were carried out as described previously with some modifications[20],[34],[46],[47]. […] The cells were seeded in 96-well plates (clear-bottomed CellBIND surface plate, Corning, Glendale, AZ, USA) coated with ε-poly-L-lysine (Cosmo Bio, Tokyo, Japan) at approximately 70,000 cells per well. After 20 h, the medium was removed and replaced with high Cl^− buffer. After 3 h 30 min incubation at 27 °C, cells were loaded with 5 µM calcium-indicator dye Fluo-8 AM (AAT Bioquest, Sunnyvale, CA, USA) diluted in high Cl^− buffer. After incubation for 30 min at 27 °C, the cells were washed with buffers containing appropriate concentrations of Cl^−. The cellular assay was initiated after 3–5 min of resting and was completed within 5 min. The measurements were made using FlexStation 3 (Molecular Devices, Sunnyvale, CA, USA) at 27 °C. Fluorescence changes (i.e., excitation at 485 nm and emission at 525 nm with a cutoff at 515 nm) were monitored at 2 s intervals. A 100-µL aliquot of assay buffer supplemented with 2 × ligands was added at 20 s, and scanning was continued for an additional 40 s. The response of each well was determined as ∆RFU (delta relative fluorescent units), which was calculated as (maximum fluorescent value)—(minimum fluorescent value). […] Such normalized data from more than three independent experiments are reported as the mean ± standard error of the mean (SEM). Dose‒response fitting curves were calculated by Prism 9 (GraphPad Software, San Diego, CA) using nonlinear regression (log(agonist) vs. response—variable slope), based on the integrated data from the several independent experiments.

mfT1R2b/mfT1R3 T105E = mfT1R2b/mfT1R3 T105E (Oryzias latipes, UniProt Q2MHK2+Q2MHK4, Q2MHK2:T105E); experiment: cell-based; settings: EC50, [Cl-]o=10 mM; unit inferred
mfT1R2b/mfT1R3 T105E, sequence (Q2MHK2 entry or part of it T105E): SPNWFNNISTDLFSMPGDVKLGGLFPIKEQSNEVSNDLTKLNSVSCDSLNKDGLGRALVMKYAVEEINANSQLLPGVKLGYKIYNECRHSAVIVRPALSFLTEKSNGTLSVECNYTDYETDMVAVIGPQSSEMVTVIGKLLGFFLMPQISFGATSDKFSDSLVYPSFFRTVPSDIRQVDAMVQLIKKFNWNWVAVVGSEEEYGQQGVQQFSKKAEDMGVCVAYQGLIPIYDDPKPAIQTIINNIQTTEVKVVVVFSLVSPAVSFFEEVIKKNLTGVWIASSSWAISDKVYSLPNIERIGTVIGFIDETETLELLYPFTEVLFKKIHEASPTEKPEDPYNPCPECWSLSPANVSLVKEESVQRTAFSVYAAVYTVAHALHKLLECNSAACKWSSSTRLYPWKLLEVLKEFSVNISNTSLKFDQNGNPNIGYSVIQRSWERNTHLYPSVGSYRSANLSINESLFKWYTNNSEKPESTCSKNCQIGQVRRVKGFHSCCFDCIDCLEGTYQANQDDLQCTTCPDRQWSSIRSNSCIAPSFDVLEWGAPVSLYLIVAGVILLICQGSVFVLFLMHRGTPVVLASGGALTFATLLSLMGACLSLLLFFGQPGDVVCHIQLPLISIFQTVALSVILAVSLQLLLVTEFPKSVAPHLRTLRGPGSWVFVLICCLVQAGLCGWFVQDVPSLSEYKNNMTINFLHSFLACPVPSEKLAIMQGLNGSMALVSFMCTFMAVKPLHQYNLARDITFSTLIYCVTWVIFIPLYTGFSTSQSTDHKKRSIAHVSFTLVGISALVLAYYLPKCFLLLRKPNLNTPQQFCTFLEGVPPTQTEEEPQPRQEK
mfT1R2b/mfT1R3 T105E, sequence (Q2MHK4 entry or part of it): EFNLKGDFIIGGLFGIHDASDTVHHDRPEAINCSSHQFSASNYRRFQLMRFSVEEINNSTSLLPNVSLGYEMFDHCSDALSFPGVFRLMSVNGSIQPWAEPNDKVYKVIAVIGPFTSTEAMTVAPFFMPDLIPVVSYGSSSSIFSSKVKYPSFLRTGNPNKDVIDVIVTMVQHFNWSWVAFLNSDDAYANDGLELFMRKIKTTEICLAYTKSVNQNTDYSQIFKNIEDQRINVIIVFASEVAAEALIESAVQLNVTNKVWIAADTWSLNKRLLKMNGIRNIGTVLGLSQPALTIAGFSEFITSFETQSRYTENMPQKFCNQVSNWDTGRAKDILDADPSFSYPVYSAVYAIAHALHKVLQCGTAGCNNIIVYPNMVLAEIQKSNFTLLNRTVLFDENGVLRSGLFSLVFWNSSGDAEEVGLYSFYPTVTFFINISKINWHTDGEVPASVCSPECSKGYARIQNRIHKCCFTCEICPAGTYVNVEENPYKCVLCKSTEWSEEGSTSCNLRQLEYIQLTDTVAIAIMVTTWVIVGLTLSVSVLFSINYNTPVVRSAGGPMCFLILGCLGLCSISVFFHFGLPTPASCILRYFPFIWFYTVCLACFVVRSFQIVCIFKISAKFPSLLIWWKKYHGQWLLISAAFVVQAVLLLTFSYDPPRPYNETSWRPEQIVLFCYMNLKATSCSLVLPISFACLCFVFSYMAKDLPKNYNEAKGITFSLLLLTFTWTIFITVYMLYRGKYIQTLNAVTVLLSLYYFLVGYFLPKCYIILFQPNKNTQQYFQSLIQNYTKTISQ
Description: as §1
Measurements of the responses of the cells by cell-based assay based on the intracellular Ca^2+ mobilization were carried out as described previously with some modifications[20],[34],[46],[47]. Cell lines stably expressing T1R2, T1R3 and chimeric G-protein α-subunit, G16gust44[48], were constructed using the Flp-In pcDNA5/FRT complete system (Thermo Fisher Scientific, Waltham, MA, USA) described in our previous studies[34],[46]. […] Fluorescence changes (i.e., excitation at 485 nm and emission at 525 nm with a cutoff at 515 nm) were monitored at 2 s intervals. […] The response of each well was determined as ∆RFU (delta relative fluorescent units), which was calculated as (maximum fluorescent value)—(minimum fluorescent value). […] Dose‒response fitting curves were calculated by Prism 9 (GraphPad Software, San Diego, CA) using nonlinear regression (log(agonist) vs. response—variable slope), based on the integrated data from the several independent experiments.

| SMILES | response to fixed concentration of L-Ala on coapplication (zfT1R2b/zfT1R3 [1]) | effect of anionic buffer composition on sensitivity (mfT1R2b/mfT1R3) | EC50 (zfT1R2b/zfT1R3 [2]) | EC50 (mfT1R2b/mfT1R3 T105E) |
| --- | --- | --- | --- | --- |
| [Cl-].[Na+] [NaCl] | decreased |  |  |  |
| C[C@H](N)C(=O)O [L-Ala, L-alanine] |  | hardly affected | 2.9 mM | 11.4 mM |

From PMC10539361, “Allosteric modulation of the fish taste receptor type 1 (T1R) family by the extracellular chloride ion” (Scientific Reports, 2023)
